Tests used:
[1] = tested on: patients having major depressive disorder; test: Phase 2 clinical trial with NSI-189 (220 patients, SPCD design), retrospective analysis by baseline cognition; type: in vivo, human; conditions: for number needed to treat to achieve one more remission / odds ratio for drug response: 80 mg vs placebo; for odds ratio for drug response: remission at 6 weeks
Description: A subsequent Phase 2 study was then performed on 220 patients with major depression (11). In that study, patients were randomized to receive a total daily dose of 40 mg or 80 mg of NSI-189 or placebo in stage 1 of the clinical trial design. […] Treatment in either stage was given for six weeks. This design is termed a Sequential Parallel Clinical Design (SPCD), and is analyzed statistically by combining results in a pre-defined manner for outcomes differences between relevant groups (e.g., drug vs. placebo) in each of the stages individually. There are two depression outcome measures accepted by the United States Food and Drug Administration (FDA) for the evaluation of adults. See the June 2018 FDA draft guidance entitled “Major Depressive Disorder: Developing Drugs for Treatment.” These are the Montgomery-Asberg Depression Rating Scale (MADRS), which was the primary outcome in this study, as well as the Hamilton Depression Rating Scale (HDRS) which was a key secondary outcome measure. […] It was reported that any benefits of NSI-189 on depression and cognition are independent effects (27).
A retrospective analysis of the 220-patient phase 2 study of NSI-189 discussed above was performed. In the study, patients having major depressive disorder were randomized to receive a total daily dose of 40 mg or 80 mg of NSI-189 or placebo in stage 1 (first 6 weeks) of the clinical trial design. […] The remaining of patients continued on their treatment for stage 2 of the trial. Treatment in either stage was given for six weeks. Patients were eligible for study participation if they were between the ages of 18-60 years, with current major depressive disorder of at least 8 weeks duration according to the DSM-5, as diagnosed by the Structured Clinical Interview for the DSM-5 clinical trial version (SCID-5-CT) during the screen and remote assessment visits, and if they were scored at least 20 at screen, remote assessment, and baseline visits on the Montgomery-Asberg Depression Rating Scale (MADRS). The phase 2 study collected cognitive task performance data prior to treatment, and then again after both stage 1 and stage 2 of the treatment protocol. The purpose of doing so was to determine whether treatment with this compound results in improvement in cognitive functioning, as measured by a variety of behavioral measures.
Prior to the inventor's retrospective analysis, there was no consideration as to using behavioral measures to predict treatment outcome nor was there any analysis conducted to this effect. There was no consideration of using cognitive performance as a predictor but only as an outcome measure. […] The tasks in this battery included a simple reaction time (RT) task, a choice RT task, a one-back working memory task, and a visual learning task. Moreover, given the conversion to z-score, a composite cognitive task performance score could be computed by averaging the z-scores for each of the four tasks in the battery. Analyses focused on the MADRS primary outcome of the study, with supporting evidence subsequently produced by examining the HDRS key secondary outcome, as well as the CGI. Statistical analyses focused first on the complete trial (incorporating both stage 1 and stage 2 outcomes), using the SPCD analytic approach reported in the original study and thus aligned could be compared with the original statistical analysis plan. We used linear mixed models to predict change from baseline (at 2, 4, and 6 weeks) in clinical scores and included covariates for time, time x group, time x baseline MADRS and baseline MADRS. These covariates likewise were used in the original study, and thus results here can be compared with the all-comer results reported previously. Statistical significance was thus assessed on the primary outcome (MADRS change from baseline at 6 weeks across the SPCD design) and similar secondary outcomes (HDRS and CGI change from baseline at 6 weeks). […]

[2] = tested on: patients having major depressive disorder; conditions: cited from earlier work
[3] = tested on: patients with major depression; conditions: total daily doses of 40 mg, 80 mg or 120 mg; 18 patients on active dose (ref. 10); cited from earlier work

CC(C)CCNc1ncccc1C(=O)N1CCN(Cc2ccccc2)CC1 [NSI-189, (4-benzylpiperazin-1-yl)-[2-(3-methylbutylamino)pyridin-3-yl]methanone]
change in MADRS scores, either drug arm versus placebo ([1]; 40 mg or 80 mg/day, good cognition group (composite score above patient mean), p=0.25): no significant differences
change in MADRS scores, 40 mg group versus placebo ([1]; 40 mg/day, poor cognition group (cognitive composite score), p=0.39): not significant
durability of MADRS benefit, poor cognition compared to good cognition patients ([1]; 80 mg arm from stage 1, composite score, 12 weeks of treatment): stable and consistent throughout all 12 weeks of treatment
number needed to treat to achieve one more remission ([1]; all-comer sample, 6 weeks, stage 1): 19.6
odds ratio for drug response ([1]; all-comer sample, stage 1): 1.3
number needed to treat to achieve one more remission ([1]; poor cognition subpopulation, 6 weeks, stage 1): 3.2
odds ratio for drug response ([1]; poor cognition subpopulation, stage 1): 4.7
change in MADRS scores, 80 mg versus placebo ([1]; 80 mg/day, choice RT task, lenient cutoff z=+0.5, p=0.12): did not yield a significant effect
Cohen's d effect size per MADRS item, 80 mg versus placebo ([1]; 80 mg/day, cognitively impaired patients, six weeks, both stages, items 1, 7, 8, 9): notable effects
remission rate (score of 10 or less on the MADRS) ([1]; 80 mg/day, good cognition patients, 6 weeks, stage 1, chi-square p=0.014 vs poor cognition): 12%
MADRS depression score improvement, 80 mg over placebo ([1]; 80 mg/day, late-life depression (LLD) group, 50 years or older): greater with 80 mg over placebo
MADRS depression score improvement, 80 mg versus placebo ([1]; 80 mg/day, non-LLD group, younger than 50): indistinguishable between the two arms
symptom change on the HDRS, 80 mg relative to placebo ([1]; 80 mg/day, poor cognition based on choice RT task, p=0.008): robust and significant effect
change in MADRS scores, 80 mg versus placebo ([1]; 80 mg/day, poor cognition defined by choice RT task, SPCD p=0.005): robust and significant improvement over placebo
Clinical Global Impression (CGI) severity, 80 mg over placebo ([1]; 80 mg/day, poor cognition defined by choice RT, p=0.0002): robust and significant advantage
change in MADRS scores, 80 mg versus placebo ([1]; 80 mg/day, poor cognition defined by one-back working memory, SPCD p=0.08): trend-level significance
change in MADRS scores, 80 mg versus placebo ([1]; 80 mg/day, poor cognition defined by simple RT task, SPCD p=0.09): trend-level significance
change in MADRS scores, 80 mg arm versus placebo ([1]; 80 mg/day, poor cognition group (cognitive composite score below patient mean), SPCD analysis p=0.014, 6 weeks): robust and statistically significant effect
change in MADRS scores, 80 mg versus placebo ([1]; 80 mg/day, poor cognition on choice RT task, cutoff z=0, p=0.007): significant superiority over placebo
change in MADRS scores, 80 mg versus placebo ([1]; 80 mg/day, poor cognition on choice RT task, cutoff z=-0.5, p=0.009): significant superiority over placebo
remission rate (score of 10 or less on the MADRS) ([1]; 80 mg/day, poor cognition patients (composite score), 6 weeks, stage 1, chi-square p=0.017 vs placebo): 47%
Clinical Global Impression (CGI) severity, 80 mg versus placebo ([1]; 80 mg/day, poor cognition patients (composite score), p=0.002): significantly more effective than placebo
symptom change on the HDRS, 80 mg over placebo ([1]; 80 mg/day, poor cognition patients (composite score), p=0.038): significantly greater efficacy
benefit in terms of remission rate ([1]; good cognition group, 6 weeks, stage 1): No benefit
MADRS depression score, difference between treatment arms ([1]; patients with poor self-reported cognition (CPFQ score >25)): no difference is seen between treatment arms
Cohen's d effect sizes (MADRS, HDRS, CGI), 80 mg versus placebo ([1]; week 6, stage 1 and stage 2, poor cognition subpopulation relative to all-comer sample): effect sizes increase substantially
effects on several secondary measures compared to placebo ([2]; 40 mg dose, all-comers, not corrected for multiple comparisons): nominally significant effects
efficacy on any study measure ([2]; 80 mg daily dose, entire study population (ref. 11)): did not demonstrate efficacy
antidepressant efficacy on MADRS primary outcome and HDRS key secondary measure ([2]; original all-comer analysis, 40 mg or 80 mg/day, full SPCD analysis or each stage alone (ref. 11)): failed to demonstrate any evidence of antidepressant efficacy
potential antidepressant efficacy [3]: promising evidence
